Test results published in patent EP1137645B1, “ALPHA-METHYLBENZYL-CONTAINING THIOUREA INHIBITORS OF HERPES VIRUSES CONTAINING A […] GROUP” (Wyeth, priority 1998, dated 2000).
Converted amounts (≈) assume the structure as drawn. Where two headings read alike, the source gives them in different places.

Columns and labels:
HSV- I = test: HSV antiviral (ELISA) assay; assay type: cell-based; details: read-out: IC50 (ug/ml) HSV
Procedure, shortened: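 Vero cells in DMEM with 2% FBS treated with compound 30 min before HSV-1 infection (MOI 0.006), then incubated ~24 h at 37°C. Viral replication measured by ELISA against glycoprotein D with β-galactosidase-linked secondary and fluorogenic substrate (ex 365/em 450 nm); IC50 relative to untreated fluorescence.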

VZV strain Ellen = test: VZV antiviral (ELISA) assay; assay type: cell-based
Procedure, shortened: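 HFF cells infected with VZV Ellen at multiplicity below 0.1 overnight, then mixed infected/uninfected cells seeded with compound in DMEM/2% FBS and incubated three days at 37°C, 5% CO2.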

[1] = tested on: HCMV recombinant mutant virus whose genome contains the prokaryotic beta-glucuronidase gene; test: microbe, parasite or virus in culture; assay type: cell-based, human cytomegalovirus; details: Human betaherpesvirus 5, Fibroblast
Procedure, shortened: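 Human foreskin fibroblasts infected with HCMV recombinant carrying beta-glucuronidase under a viral promoter (e.g. RV145) in presence of compound. At 96 h post-infection, lysates assayed for beta-glucuronidase by colorimetric or fluorogenic substrate as replication readout; IC50 estimated from varying compound amounts.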

[2] = Human alphaherpesvirus 3, HFF, read-out: IC50 (ug/ml) VZV, VZV strain Ellen, HFF cells, ELISA
[3] = read-out: IC50 ug/ml HCMV, HCMV, human foreskin fibroblasts
[4] = Human alphaherpesvirus 3, VZV strain Ellen, HFF cells, ELISA, read-out: IC50 (ug/ml) VZV

Compound | IC50 (HSV- I; Vero) [µg/mL] | IC50 (VZV strain Ellen; [2]) [µg/mL] | IC50 [1, 3] [µg/mL] | IC50 (HSV- I; HSV- I, Vero cells, ELISA) [µg/mL] | IC50 (VZV strain Ellen; [4]) [µg/mL] | IC50 ([1]; read-out: IC50 ug/ml HCMV) [µg/mL]
CC(NC(=S)Nc1ccc(NC(=O)c2ccccc2F)cc1)c1ccccc1Cl (stereo not drawn) [Example 784, N-(4-{3-[1-(2-Chloro-phenyl)-ethyl]-thioureido}-phenyl)-2-fluoro-benzamide] | > 10 | 0.7 (≈ 1.64 µM) | 1.1 (≈ 2.57 µM) |  |  | 
CC(NC(=S)Nc1ccc(NC(=O)c2ccccc2F)cc1)c1ccccc1C(F)(F)F (stereo not drawn) [Example 785, 2-Fluoro-N-(4-{3-[1-(2-trifluoromethyl-phenyl)-ethyl]-thioureido}-phenyl)-benzamide] |  |  |  | > 10 | > 7.5 | > 2.2
CC(NC(=S)Nc1ccc(NC(=O)c2ccccc2F)cc1)c1cccc(C(F)(F)F)c1 (stereo not drawn) [Example 786, 2-Fluoro-N-(4-{3-[1-(3-trifluoromethyl-phenyl)-ethyl]-thioureido}-phenyl)-benzamide] |  |  |  | > 10 | > 7.5 | 1.5 (≈ 3.25 µM)
CC(NC(=S)Nc1ccc(NC(=O)c2ccccc2F)cc1)c1ccc(C(F)(F)F)cc1 (stereo not drawn) [Example 787, 2-Fluoro-N-(4-{3-[1-(4-trifluoromethyl-phenyl)-ethyl]-thioureido}-phenyl)-benzamide] |  |  |  | > 10 | > 7.5 | 1.2 (≈ 2.6 µM)
COc1ccccc1C(C)NC(=S)Nc1ccc(NC(=O)c2ccccc2F)cc1 (stereo not drawn) [Example 788, 2-Fluoro-N-(4-{3-[1-(2-methoxy-phenyl)-ethyl]-thioureido}-phenyl)-benzamide] | > 10 | > 7.5 | 1.8 (≈ 4.25 µM) |  |  | 
COc1cccc(C(C)NC(=S)Nc2ccc(NC(=O)c3ccccc3F)cc2)c1 (stereo not drawn) [Example 789, 2-Fluoro-N-(4-{3-[1-(3-methoxy-phenyl)-ethyl]-thioureido}-phenyl)-benzamide] | > 10 | 1.5 (≈ 3.54 µM) | > 2.2 |  |  | 
CC(C)C(NC(=S)Nc1ccc(NC(=O)c2ccccc2F)cc1)c1ccc(F)cc1 (stereo not drawn) [Example 790, 2-Fluoro-N-(4-{3-[1-(4-fluoro-phenyl)-2-methyl-propyl]-thioureido}-phenyl)-benzamide] | > 10 | 2.5 (≈ 5.69 µM) | 1.5 (≈ 3.41 µM) |  |  | 
CC(NC(=S)Nc1ccc(NC(=O)c2ccccc2F)cc1)c1cccc(C#N)c1 (stereo not drawn) [Example 791, N-(4-{3-[1-(3-Cyano-phenyl)-ethyl]-thioureido}-phenyl)-2-fluoro-benzamide] |  |  |  | > 10 | 7 (≈ 16.7 µM) | 7.3 (≈ 17.4 µM)
CC(NC(=S)Nc1ccc(NC(=O)c2ccccc2F)cc1)c1ccc(C#N)cc1 (stereo not drawn) [Example 792, N-(4-{3-[1-(4-Cyano-phenyl)-ethyl]-thioureido}-phenyl)-2-fluoro-benzamide] |  |  |  | > 10 | > 7.5 | 5 (≈ 11.9 µM)
CC(NC(=S)Nc1ccc(NC(=O)c2ccccc2F)cc1)c1ccc(N(C)C)cc1 (stereo not drawn) [Example 793, N-(4-{3-[1-(4-Dimethylamino-phenyl)-ethyl]-thioureido}-phenyl)-2-fluoro-benzamide] | 9 (≈ 20.6 µM) | 3.1 (≈ 7.1 µM) | 3.2 (≈ 7.33 µM) |  |  | 
CC(NC(=S)Nc1ccc(NC(=O)c2ccccc2F)cc1)c1cccc(N(C)C)c1 (stereo not drawn) [Example 794, N-(4-{3-[1-(3-Dimethylamino-phenyl)-ethyl]-thioureido}-phenyl)-2-fluoro-benzamide] | 7 (≈ 16 µM) | 0.4 (≈ 0.916 µM) | 6.2 (≈ 14.2 µM) |  |  | 
CC(NC(=S)Nc1ccc(NC(=O)c2ccccc2Br)cc1)c1ccc(F)cc1 (stereo not drawn) [Example 795, 2-Bromo-N-(4-{3-[1-(4-fluoro-phenyl)-ethyl]-thioureido}-pbenyl)-benzamide] | 8.6 (≈ 18.2 µM) | > 7.5 | 4.1 (≈ 8.68 µM) |  |  | 
O=C(Nc1ccc(NC(=S)NC(CO)c2ccccc2)cc1)c1ccccc1F (stereo not drawn) [Example 797, 2-Fluoro-N-{4-[3-(2-hydroxy-1-phenyl-ethyl)-thioureido]-phenyl}-benzamide] |  |  |  | > 10 | 1.7 (≈ 4.15 µM) | > 10
CC(NC(=S)Nc1ccc(NC(=O)c2ccccc2F)cc1)c1ccc2ccccc2c1 (stereo not drawn) [Example 799, 2-Fluoro-N-{4-[3-(1-naphthalen-2-yl-ethyl)-thioureido]-phenyl}-benzamide] | > 10 | > 7.5 | 1.7 (≈ 3.83 µM) |  |  | 
